According to ChEMBL document CHEMBL1201862, “PubChem BioAssay data set” (2004):
Activity calls are given as the source filed them.

What was measured:
[1] = target: T1, Caspase-6 (Homo sapiens, UniProt P55212); test: human caspase-6 inhibitors, dose response, biochemical, VEID-R110 fluorescence, cherry-pick (AID 720632)
T1 sequence (P55212 whole entry): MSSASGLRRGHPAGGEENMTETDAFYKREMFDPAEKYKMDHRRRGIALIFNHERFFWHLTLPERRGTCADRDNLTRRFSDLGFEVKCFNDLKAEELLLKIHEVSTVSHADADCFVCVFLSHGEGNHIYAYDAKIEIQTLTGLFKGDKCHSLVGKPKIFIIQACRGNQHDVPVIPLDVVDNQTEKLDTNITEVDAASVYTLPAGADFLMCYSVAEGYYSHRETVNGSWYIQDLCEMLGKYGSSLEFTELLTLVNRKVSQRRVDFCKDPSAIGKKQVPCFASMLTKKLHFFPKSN

[2] = target: T2, Caspase-3 (Homo sapiens, UniProt P42574); assay type: functional;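 further: Dose-response selectivity test against caspase-3 for candidate inhibitors of sentrin-specific proteases (SENPs)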
T2 sequence (P42574 whole entry): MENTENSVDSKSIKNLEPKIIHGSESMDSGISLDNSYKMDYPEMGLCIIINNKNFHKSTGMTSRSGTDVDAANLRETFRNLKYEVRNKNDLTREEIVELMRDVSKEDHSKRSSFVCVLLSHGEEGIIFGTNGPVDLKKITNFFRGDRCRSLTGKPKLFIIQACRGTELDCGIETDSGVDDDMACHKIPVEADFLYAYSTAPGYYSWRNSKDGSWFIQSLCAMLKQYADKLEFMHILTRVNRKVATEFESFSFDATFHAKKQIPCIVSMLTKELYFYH

[3] = target: T3, Sentrin-specific protease 7 (Homo sapiens, UniProt Q9BQF6); assay type: functional;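 further: Luminescence-based dose-response confirmation of ultra-high-throughput screening hits, measuring inhibition of SENP7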
T3 sequence (Q9BQF6 whole entry): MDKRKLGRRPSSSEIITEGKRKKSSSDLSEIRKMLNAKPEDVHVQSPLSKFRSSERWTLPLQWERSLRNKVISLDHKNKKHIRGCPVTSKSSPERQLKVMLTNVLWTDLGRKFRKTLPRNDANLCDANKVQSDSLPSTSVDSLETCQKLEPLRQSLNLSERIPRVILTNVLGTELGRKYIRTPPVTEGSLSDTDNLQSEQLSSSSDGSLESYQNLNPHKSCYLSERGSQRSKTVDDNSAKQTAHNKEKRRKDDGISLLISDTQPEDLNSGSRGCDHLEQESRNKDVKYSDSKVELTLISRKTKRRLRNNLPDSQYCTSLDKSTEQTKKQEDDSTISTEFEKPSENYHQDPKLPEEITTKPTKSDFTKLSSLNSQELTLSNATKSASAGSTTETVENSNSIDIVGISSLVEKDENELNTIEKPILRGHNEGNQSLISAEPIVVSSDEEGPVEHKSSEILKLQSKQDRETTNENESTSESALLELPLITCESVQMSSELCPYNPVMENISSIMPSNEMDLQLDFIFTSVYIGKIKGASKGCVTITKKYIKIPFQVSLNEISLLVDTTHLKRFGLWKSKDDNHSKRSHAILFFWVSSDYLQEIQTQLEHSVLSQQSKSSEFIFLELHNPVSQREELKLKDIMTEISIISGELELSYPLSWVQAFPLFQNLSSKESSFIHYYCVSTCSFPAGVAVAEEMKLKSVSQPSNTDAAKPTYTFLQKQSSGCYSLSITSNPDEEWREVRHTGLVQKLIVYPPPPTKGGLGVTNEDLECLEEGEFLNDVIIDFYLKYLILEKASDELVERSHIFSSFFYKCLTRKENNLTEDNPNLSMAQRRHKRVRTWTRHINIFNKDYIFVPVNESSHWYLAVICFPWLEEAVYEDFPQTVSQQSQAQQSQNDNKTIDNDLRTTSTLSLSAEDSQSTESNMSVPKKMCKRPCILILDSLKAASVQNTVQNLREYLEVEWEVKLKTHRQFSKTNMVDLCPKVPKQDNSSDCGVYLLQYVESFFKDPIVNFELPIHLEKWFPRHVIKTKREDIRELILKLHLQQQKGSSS

[4] = test system: HEK293; test: cytotoxicity in HEK293T NF-kB-Luc cells, SAR follow-up, cytotoxicity control for NF-kB activator project, cell-based, resazurin fluorescence (AID 493251); assay type: functional; conditions: Homo sapiens
[5] = NIH-3T3 fibroblast cytotoxicity, dose response, cytotoxicity control, cell-based, fluorescence, Alamar Blue, secondary assay (AID 2327); assay type: functional;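 further: NIH-3T3 mouse fibroblasts cultured with fluconazole at 8 µg/mL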
[6] = Luminescence-based dose response cell-based high throughput screening assay for cytotoxic compounds using the IEC-6 intestinal epithelial cell line. [Related pubchem assays: 1858 (Summary AID.), 1825 (Counterscreen.), 1907 (Confirmation screen.)]; assay type: functional
[7] = test system: BJ; test: cells; assay type: functional, cell-based; conditions: Homo sapiens
[8] = test system: BJ; test: cytotoxicity toward BJ-TERT-LT-ST fibroblasts, dose response, cell-based, RAS-independent, luminescence (AID 1935); assay type: functional; conditions: Homo sapiens;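 further: BJ fibroblasts immortalized with TERT plus LT and ST oncogenes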
[9] = HepG2 cell cytotoxicity, dose response, cytotoxicity control for Shn3 inhibitor project, CellTiter-Glo, cherry-picked (AID 624134); assay type: functional, cell-based
[10] = target: ATP-dependent molecular chaperone HSP82 (Candida albicans (strain WO-1) (Yeast), UniProt C4YTQ8); test: loss of DOC-induced GRE-beta-galactosidase reporter signal, dose response, Hsp90 inhibitor project, S. cerevisiae, luminescence (AID 2400); assay type: functional, cell-based;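 further: beta-galactosidase luminescence from glucocorticoid response element reporter as proxy for Hsp90 function; inhibitor potency where signal loss means Hsp90 inhibition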
Chain of ATP-dependent molecular chaperone HSP82 (C4YTQ8 whole entry): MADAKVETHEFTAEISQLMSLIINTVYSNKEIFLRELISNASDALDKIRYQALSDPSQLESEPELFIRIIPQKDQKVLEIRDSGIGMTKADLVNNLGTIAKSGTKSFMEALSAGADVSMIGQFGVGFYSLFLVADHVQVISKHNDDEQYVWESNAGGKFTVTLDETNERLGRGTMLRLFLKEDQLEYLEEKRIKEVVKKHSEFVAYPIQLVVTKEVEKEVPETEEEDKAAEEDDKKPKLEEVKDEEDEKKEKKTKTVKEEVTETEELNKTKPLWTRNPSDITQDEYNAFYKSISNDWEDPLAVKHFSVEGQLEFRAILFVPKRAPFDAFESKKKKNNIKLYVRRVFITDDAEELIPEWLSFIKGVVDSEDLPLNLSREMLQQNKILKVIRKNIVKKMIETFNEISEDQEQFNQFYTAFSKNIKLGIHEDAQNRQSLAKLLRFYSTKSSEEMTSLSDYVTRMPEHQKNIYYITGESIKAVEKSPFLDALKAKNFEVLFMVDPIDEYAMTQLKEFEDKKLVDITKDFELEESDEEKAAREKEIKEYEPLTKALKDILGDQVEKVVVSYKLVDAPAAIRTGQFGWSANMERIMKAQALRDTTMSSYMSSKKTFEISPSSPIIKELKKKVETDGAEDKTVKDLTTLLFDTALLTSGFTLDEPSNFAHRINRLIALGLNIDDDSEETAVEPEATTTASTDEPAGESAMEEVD

[11] = cells; assay type: functional, cell-based
[12] = target: T4, Serine/threonine-protein phosphatase (Candida dubliniensis (strain CD36 / CBS 7987 / NCPF 3949 / NRRLY-17841) (Yeast), UniProt B9W6M3); test: calcineurin pathway inhibitors in yeast reporter, dose response, S. cerevisiae, CDRE-lacZ, luminescence, secondary (AID 2388); assay type: functional, cell-based;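 further: yeast reporter cells carrying a calcineurin-responsive lacZ construct stimulated with calcium chloride; luminescent beta-galactosidase reporter signal in whole cells rather than isolated phosphatase activity; potency for inhibition where a drop in reporter signal means calcineurin blockade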
T4 sequence (B9W6M3 whole entry): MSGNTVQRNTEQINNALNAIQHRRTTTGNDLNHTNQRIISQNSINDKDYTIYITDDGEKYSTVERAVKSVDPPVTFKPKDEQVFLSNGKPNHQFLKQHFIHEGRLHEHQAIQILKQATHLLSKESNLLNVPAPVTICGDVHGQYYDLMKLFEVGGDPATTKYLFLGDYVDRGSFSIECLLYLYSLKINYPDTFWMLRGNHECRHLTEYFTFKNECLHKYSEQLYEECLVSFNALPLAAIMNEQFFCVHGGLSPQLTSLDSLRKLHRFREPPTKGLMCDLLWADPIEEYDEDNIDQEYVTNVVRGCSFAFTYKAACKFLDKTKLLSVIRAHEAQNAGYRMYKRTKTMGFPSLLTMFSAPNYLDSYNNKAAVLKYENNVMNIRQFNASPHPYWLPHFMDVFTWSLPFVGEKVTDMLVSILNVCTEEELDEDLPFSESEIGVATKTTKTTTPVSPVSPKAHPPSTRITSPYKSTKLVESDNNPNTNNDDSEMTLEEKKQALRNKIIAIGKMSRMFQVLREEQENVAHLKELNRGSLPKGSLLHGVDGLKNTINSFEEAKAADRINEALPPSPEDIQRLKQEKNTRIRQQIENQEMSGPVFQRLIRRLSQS

[13] = cytotoxicity in HEK-293T cells, dose response, cytotoxicity control for TCR NF-kB inhibitor project, luminescence, T-cell screen hits (AID 489026); assay type: functional, cell-based;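 further: cells exposed to compound about 14 hours before the viability readout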
[14] = Shn3 3'UTR reporter inhibitors, dose response, cell-based, Clone20 osteoblasts, firefly luciferase, cherry-picked (AID 624132); assay type: functional;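 further: firefly luciferase luminescence from reporter carrying the Shn3 3'UTR in osteoblasts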
[15] = C. albicans growth with fluconazole, confirmation, fluorescence, retest (AID 2467); assay type: functional, cell-based

Structure (SMILES)	AC50 [1]	IC50 [2]	IC50 [3]	IC50 [4]	EC50 [5]	IC50 [6]	EC50 [7]	EC50 [8]	AC50 [9]	EC50 [10]	EC50 [11]	EC50 [12]	IC50 [13]	AC50 [14]	EC50 [15]
CN(CC(=O)Nc1ccccc1Cl)C(=O)COC(=O)c1ccc([N+](=O)[O-])s1	4.3 µM (active)	6.21 µM (active)	8.73 µM (active)	–	–	–	–	–	–	–	–	–	–	–	–
CCCCC(=O)NC(c1ccc(N(C)C)cc1)c1ccc2cccnc2c1O (stereo not given)	–	–	–	41.2 µM (inactive)	28.4 µM (inconclusive)	1.72 µM (active)	3.12 µM (active)	3.17 µM (inconclusive)	2.47 µM (active)	> 160 µM (inactive)	> 350 µM (not active)	> 180 µM (inactive)	> 80 µM (inactive)	0.98 µM (active)	0.832 µM (active)
